Results taken from patent publication US10450318B2, “CXCR4 receptor antagonists” (BRISTOL-MYERS SQUIBB COMPANY, priority 2015, dated 2019).

Biological target: T1, CXCR4 receptors (Homo sapiens, UniProt P61073)
T1 construct: expressing endogenous CXCR4 receptors; endogenous in cells; host or cells: CCRF-CEM (human T lymphoblast cells)
Assay: CXCR4-CEM calcium flux assay, antagonist mode (inhibition of SDF-1α-induced calcium flux)
Assay type: cell-based
Conditions: inhibition of calcium flux induced by 4 nM SDF-1α in CCRF-CEM cells
Experimental: Exemplary compounds of the invention were tested for their ability to induce or inhibit calcium flux in CCRF-CEM cells. […] CXCR4-CEM Calcium Flux Assays. […] The cells were then equilibrated to room temperature for 30 minutes before assay. […] The serially diluted compounds were diluted to working concentrations with the same assay buffer to 0.5% DMSO. […] Activity of the compounds to induce calcium flux was monitored by FDSS in the “agonist mode” for 90 sec. For “antagonist mode” assessment, the cells are subsequently incubated for 25 min at room temperature. SDF-1α (R&D System Cat#350-NS/CF) was then added at a final concentration of 4 nM to stimulate the cells. Inhibition of SDF-1α-induced calcium flux was monitored by FDSS6000 for 90 sec. […] After correcting for background, EC50 values were determined. […] Inhibition data for the test compound over a range of concentrations was plotted as percentage inhibition of the test compound as compared to an internal control compound.

T1 sequence (P61073 whole entry): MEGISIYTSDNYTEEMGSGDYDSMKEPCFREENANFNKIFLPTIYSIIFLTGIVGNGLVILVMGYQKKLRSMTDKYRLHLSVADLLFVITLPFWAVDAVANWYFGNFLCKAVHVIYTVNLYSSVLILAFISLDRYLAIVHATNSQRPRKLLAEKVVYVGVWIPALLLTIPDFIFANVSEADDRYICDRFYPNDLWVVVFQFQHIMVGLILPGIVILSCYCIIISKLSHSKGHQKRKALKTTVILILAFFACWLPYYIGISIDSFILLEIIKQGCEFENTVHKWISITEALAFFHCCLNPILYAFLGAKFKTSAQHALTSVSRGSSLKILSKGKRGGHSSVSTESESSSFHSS

Row | Structure (SMILES) | IC50 [nM]
1 | CN(Cc1cn2c(N3CCN4CCOCC4C3)nccc2n1)[C@H]1CCCc2cccnc21 (single isomer, unassigned) [Example 91] | > 30000
2 | CN(Cc1cn2c(N3CCN4CCOCC4C3)nccc2n1)[C@H]1CCCc2cccnc21 (single isomer, unassigned) [Example 92] | 290
3 | CN(Cc1cn2c(N3CC4CCCNC4C3)nccc2n1)[C@H]1CCCc2cccnc21 (single isomer, unassigned) [Example 96] | 220
4 | CN(Cc1cn2c(N3CCN(C(=O)OC(C)(C)C)CC3)nccc2n1)[C@H]1CCCc2cccnc21 [Example 3, (S)-tert-Butyl 4-(2-((methyl(5,6,7,8-tetrahydroquinolin-8-yl)amino)methyl)imidazo[1,2-c]pyrimidin-5-yl)piperazine-1-carboxylate] | > 30000
5 | CN(Cc1cn2c(N3CCOCC3)nccc2n1)[C@H]1CCCc2cccnc21 [Example 9, (S)—N-Methyl-N-((5-morpholinoimidazo[1,2-c]pyrimidin-2-yl)methyl)-5,6,7,8-tetrahydroquinolin-8-amine] | 25500
6 | CC(=O)N1CCN(c2nccc3nc(CN(C)[C@H]4CCCc5cccnc54)cn23)CC1 [Example 10, (S)-1-(4-(2-((Methyl(5,6,7,8-tetrahydroquinolin-8-yl)amino)methyl)imidazo[1,2-c]pyrimidin-5-yl)piperazin-1-yl)ethanone] | 8600
7 | COC(=O)N1CCN(c2nccc3nc(CN(C)[C@H]4CCCc5cccnc54)cn23)CC1 [Example 13, (S)-Methyl 4-(2-((methyl(5,6,7,8-tetrahydroquinolin-8-yl)amino)methyl)imidazo[1,2-c]pyrimidin-5-yl)piperazine-1-carboxylate] | 5670
8 | CCNC(=O)N1CCN(c2nccc3nc(CN(C)[C@H]4CCCc5cccnc54)cn23)CC1 [Example 14, (S)—N-ethyl-4-(2-((methyl(5,6,7,8-tetrahydroquinolin-8-yl)amino)methyl)imidazo[1,2-c]pyrimidin-5-yl)piperazine-1-carboxamide] | 1230
9 | CN(Cc1cn2c(N3CCN(S(C)(=O)=O)CC3)nccc2n1)[C@H]1CCCc2cccnc21 [Example 15, (S)—N-Methyl-N-((5-(4-(methylsulfonyl)piperazin-1-yl)imidazo[1,2-c]pyrimidin-2-yl)methyl)-5,6,7,8-tetrahydroquinolin-8-amine] | 750
10 | CN(Cc1cn2c(N3CCN(CCN)CC3)nccc2n1)[C@H]1CCCc2cccnc21 [Example 16, (S)—N-((5-(4-(2-Aminoethyl)piperazin-1-yl)imidazo[1,2-c]pyrimidin-2-yl)methyl)-N-methyl-5,6,7,8-tetrahydroquinolin-8-amine] | 540
11 | CN(Cc1cn2c(N3CCN(C4CCCCC4)CC3)nccc2n1)[C@H]1CCCc2cccnc21 [Example 23, (S)-N-{[5-(4-cyclohexylpiperazin-1-yl)imidazo[1,2-c]pyrimidin-2-yl]methyl}-N-methyl-5,6,7,8-tetrahydroquinolin-8-amine] | 770

Stronger by IC50, values ahead:

Row | IC50 [nM] | Structure (SMILES)
12 | 89 | CSc1nccc2nc(CN(C)[C@H]3CCCc4cccnc43)cn12 [Example 8, (S)—N-Methyl-N-((5-(methylthio)imidazo[1,2-c]pyrimidin-2-yl)methyl)-5,6,7,8-tetrahydroquinolin-8-amine]
13 | 56 | CN(Cc1cn2c(N3CCNC(c4ccccc4)C3)nccc2n1)[C@H]1CCCc2cccnc21 (single isomer, unassigned) [Example 79]
14 | 54 | CN(Cc1cn2c(N3CCN(CCF)CC3)nccc2n1)[C@H]1CCCc2cccnc21 [Example 12, (S)—N-((5-(4-(2-Fluoroethyl)piperazin-1-yl)imidazo[1,2-c]pyrimidin-2-yl)methyl)-N-methyl-5,6,7,8-tetrahydroquinolin-8-amine]
15 | 42 | CC(C)CN1CCN(c2nccc3nc(CN(C)[C@H]4CCCc5cccnc54)cn23)CC1 [Example 22, (S)-N-methyl-N-({5-[4-(2-methylpropyl)piperazin-1-yl]imidazo[1,2-c]pyrimidin-2-yl}methyl)-5,6,7,8-tetrahydroquinolin-8-amine]
16 | 24 | CN(Cc1cn2c(N3CC4CCCNC4C3)nccc2n1)[C@H]1CCCc2cccnc21 (single isomer, unassigned) [Example 95]
17 | 17 | CN(Cc1cn2c(N3CCN(CC4CC4)CC3)nccc2n1)[C@H]1CCCc2cccnc21 [Example 21, (8S)-N-({5-[4-(cyclopropylmethyl)piperazin-1-yl]imidazo[1,2-c]pyrimidin-2-yl}methyl)-N-methyl-5,6,7,8-tetrahydroquinolin-8-amine]
18 | 14 | CN(Cc1cn2c(N3CCN(CCc4ccccc4)CC3)nccc2n1)[C@H]1CCCc2cccnc21 [Example 18, (S)-N-methyl-N-({5-[4-(2-phenylethyl)piperazin-1-yl]imidazo[1,2-c]pyrimidin-2-yl}methyl)-5,6,7,8-tetrahydroquinolin-8-amine]
19 | 14 | CC(C)CCN1CCN(c2nccc3nc(CN(C)[C@H]4CCCc5cccnc54)cn23)CC1 [Example 19, (S)-N-methyl-N-({5-[4-(3-methylbutyl)piperazin-1-yl]imidazo[1,2-c]pyrimidin-2-yl}methyl)-5,6,7,8-tetrahydroquinolin-8-amine]
20 | 13 | CN(Cc1cn2c(N3CCN(CCO)CC3)nccc2n1)[C@H]1CCCc2cccnc21 [Example 11, (S)-2-(4-(2-((Methyl(5,6,7,8-tetrahydroquinolin-8-yl)amino)methyl)imidazo[1,2-c]pyrimidin-5-yl)piperazin-1-yl)ethanol]
21 | 11 | CN(Cc1cn2c(N3CCNC(c4ccccc4)C3)nccc2n1)[C@H]1CCCc2cccnc21 (single isomer, unassigned) [Example 78]
22 | 9.6 | CC(C)N1CCN(c2nccc3nc(CN(C)[C@H]4CCCc5cccnc54)cn23)CC1 [Example 20, (S)-N-methyl-N-({5-[4-(propan-2-yl)piperazin-1-yl]imidazo[1,2-c]pyrimidin-2-yl}methyl)-5,6,7,8-tetrahydroquinolin-8-amine]
23 | 8.1 | CN(Cc1cn2c(N3CCNCC3)nccc2n1)[C@H]1CCCc2cccnc21 [Example 5, (S)—N-Methyl-N-((5-(piperazin-1-yl)imidazo[1,2-c]pyrimidin-2-yl)methyl)-5,6,7,8-tetrahydroquinolin-8-amine]
24 | 3.8 | CN(Cc1nc2ccnc(N3CCNCC3)n2c1CO)[C@H]1CCCc2cccnc21 [Example 6, (S)-(2-((Methyl(5,6,7,8-tetrahydroquinolin-8-yl)amino)methyl)-5-(piperazin-1-yl)imidazo[1,2-c]pyrimidin-3-yl)methanol]
25 | 3.7 | [2H]C([2H])([2H])N1CCN(c2nccc3nc(CN(C)[C@H]4CCCc5cccnc54)cn23)CC1 [Example 17, (S)—N-Methyl-N-((5-(4-(methyl-d3)piperazin-1-yl)imidazo[1,2-c]pyrimidin-2-yl)methyl)-5,6,7,8-tetrahydroquinolin-8-amine]
26 | 2.5 | CN1CCN(c2nccc3nc(CN(C)[C@H]4CCCc5cccnc54)cn23)CC1 [Example 4, (S)—N-Methyl-N-((5-(4-methylpiperazin-1-yl)imidazo[1,2-c]pyrimidin-2-yl)methyl)-5,6,7,8-tetrahydroquinolin-8-amine]
27 | 2.4 | CN1CCN(c2nccc3nc(CN(C)[C@H]4CCCc5cccnc54)c(CO)n23)CC1 [Example 7, (S)-(2-((Methyl(5,6,7,8-tetrahydroquinolin-8-yl)amino)methyl)-5-(4-methylpiperazin-1-yl)imidazo[1,2-c]pyrimidin-3-yl)methanol]
